In patent US20260273033A1, “NOVEL LIPID NANOPARTICLE FORMULATIONS FOR DELIVERY OF NUCLEIC ACIDS” (CureVac SE, priority 2023, published 2026):

Columns and labels:
[1] = in vivo; cited from earlier work
[2] = Immune responses of mRNA vaccines in vivo, DPhyPE versus DSPC as neutral lipid; conditions: DPhyPE versus DSPC as neutral lipid in LNP compositions

In the case of poly(2-methyl-2-oxazoline) [PMOZ], the accumulation in tissue [1] is listed as “no significant accumulation in tissue” and the excretion [1] is listed as “rapidly excreted by the kidney”.
With `CC(C)CCCC(C)CCCC(C)CCCC(C)CC(=O)OC[C@H](COP(=O)(O)OCCN)OC(=O)CC(C)CCCC(C)CCCC(C)CCCC(C)C` (stereo partly drawn) [DPhyPE, 1,2-diphytanoyl-sn-glycero-3-phosphoethanolamine] the “immune responses of mRNA vaccines in vivo, neutral lipid comparison” value [2] was “clear advantage over DSPC”.
